The compounds below were run on Septoria tritici (ATCC 26517) (assay: Minimum Inhibitory Concentration (MIC) (Septoria tritici), CLSI-based microdilution). Settings: Zymoseptoria tritici, ATCC26517, 168 h, MIC class; 50% reduction in growth of S. tritici; 7 days at 22 °C; read-out: Septoria Rating.
Assay type: cell-based
Method: C. Minimum Inhibitory Concentration (MIC) (Septoria tritici) Compounds of the present disclosure were assessed for their ability to inhibit the growth of a common strain of the fungal plant pathogen Septoria tritici (ATCC 26517) using a procedure based on a Clinical and Laboratory Standards Institute (CLSI) microdilution assay protocol for filamentous fungi. Stock solutions of the test compounds and standards were prepared in DMSO at 6400 μg/mL. Each stock solution was used to prepare a 2-fold dilution series ranging from 16 to 0.016 μg/mL (total of 11 compound concentrations) in RPMI-1640 (Roswell Park Memorial Institute) medium containing 3-(N-morpholino)propanesulfonic acid (MOPS) buffer and 2% DMSO. A 100 μL aliquot of the dilutions was added to columns 1 (16 μg/mL compound) through 11 (0.016 μg/mL compound) of a 96-well microtiter plate. This format was replicated in a second row of the microtiter plate. Thus, each microtiter plate could include 11 concentrations of four test or control compounds replicated twice. A 100 μL aliquot of RPMI-1640/MOPS/2% DMSO medium was added to column 12 (no compound control) of the microtiter plate. A fresh culture of S. tritici was used to prepare a solution of approximately 5×10^4 colony-forming units per milliliter (cfu/mL) in RPMI/MOPS medium without DMSO. A 100 μL aliquot of this solution was added to all 96 wells in the microtiter plate. […]

| SMILES | MIC [µg/mL] |
| --- | --- |
| OC(Cn1cnnn1)(c1ccc(F)cc1F)C(F)(F)c1ccc(-c2ccc(Cl)nc2)cn1 (stereo not drawn) [Compound 30, 1-(6′-Chloro-[3,3′-bipyridin]-6-yl)-2-(2,4-difluorophenyl)-1,1-difluoro-3-(1H-tetrazol-1-yl)propan-2-ol] | ≤ 0.5 |

What follows are compounds tested on Puccinia recondita tritici = Puccinia triticina (PUCCRT) (assay: Fungicidal activity vs. wheat leaf rust). Settings: % disease control @ 50 ppm, wheat seedlings sprayed, inoculated the following day, severity evaluated 7-9 days later, read-out: Puccinia Rating.
Assay type: in vivo, Puccinia recondita tritici on wheat (variety Yuma)
Source text: D. Evaluation of Fungicidal Activity Vs. Leaf Rust (Causal Agent Puccinia recondita tritici=Puccinia triticina; Bayer code PUCCRT). […] Each pot contained 3-8 seedlings. These plants were sprayed until wet with the formulated test compounds. The compounds were formulated at 50 ppm in 10 vol. % acetone plus 90 vol. % Triton X water (deionized water 99.99 wt %+0.01 wt % Triton X100), giving a “formulated test compound.” Formulated test compounds were applied to plants using a turn table sprayer fitted with two opposing air atomization nozzles which delivered approximately 1500 L/ha of spray volume. On the following day, the leaves were inoculated with an aqueous spore suspension of Puccinia recondita tritici and the plants were kept in high humidity overnight to permit spores to germinate and infect the leaf. The plants were then transferred to a greenhouse until disease developed on untreated control plants. Disease severity was evaluated 7-9 days later, depending on the speed of disease development. In each case of Table 3, the Puccinia rating scale is as follows: […]

| SMILES | pest or weed control at 50 ppm [%] |
| --- | --- |
| OC(Cn1cnnn1)(c1ccc(F)cc1F)C(F)(F)c1ccc(-c2ccc(Cl)nc2)cn1 (stereo not drawn) [Compound 30, 1-(6′-Chloro-[3,3′-bipyridin]-6-yl)-2-(2,4-difluorophenyl)-1,1-difluoro-3-(1H-tetrazol-1-yl)propan-2-ol] | 80 to 100 |
| OC(Cn1cnnn1)(c1ccc(F)cc1F)C(F)(F)c1ccc(-c2ccc(C(F)F)s2)cn1 (stereo not drawn) [Compound 33, 1-(5-(5-(Difluoromethyl)thiophen-2-yl)pyridin-2-yl)-2-(2,4-difluorophenyl)-1,1-difluoro-3-(1H-tetrazol-1-yl)propan-2-ol] | 80 to 100 |
| O=C(c1ccc(C(F)(F)F)cc1)c1ccc(C(F)(F)C(O)(Cn2cnnn2)c2ccc(F)cc2F)nc1 (stereo not drawn) [Compound 66, (6-(2-(2,4-Difluorophenyl)-1,1-difluoro-2-hydroxy-3-(1H-tetrazol-1-yl)propyl)pyridin-3-yl)(4-(trifluoromethyl)phenyl)methanone] | 80 to 100 |
| OC(Cn1cnnn1)(c1ccc(F)cc1F)C(F)(F)c1ccc(Cc2ccccc2)cn1 (stereo not drawn) [Compound 75, 1-(5-Benzylpyridin-2-yl)-2-(2,4-difluorophenyl)-1,1-difluoro-3-(1H-tetrazol-1-yl)propan-2-ol] | 80 to 100 |
| CC(C)OC/C=C/c1ccc(C(F)(F)C(O)(Cn2cnnn2)c2ccc(F)cc2F)nc1 (stereo not drawn) [Compound 54, (E)-2-(2,4-Difluorophenyl)-1,1-difluoro-1-(5-(3-isopropoxyprop-1-en-1-yl)pyridin-2-yl)-3-(1H-tetrazol-1-yl)propan-2-ol] | < 40 |
| O=C(c1ccc(Cl)cc1)c1ccc(C(F)(F)C(O)(Cn2cnnn2)c2ccc(F)cc2F)nc1 (stereo not drawn) [Compound 67, (4-Chlorophenyl)(6-(2-(2,4-difluorophenyl)-1,1-difluoro-2-hydroxy-3-(1H-tetrazol-1-yl)propyl)pyridin-3-yl)methanone] | 80 to 100 |
| OC(Cn1cnnn1)(c1ccc(F)cc1F)C(F)(F)c1ccc(COC(F)F)cn1 (stereo not drawn) [Compound 92, 1-(5-((difluoromethoxy)methyl)pyridin-2-yl)-2-(2,4-difluorophenyl)-1,1-difluoro-3-(1H-tetrazol-1-yl)propan-2-ol] | 80 to 100 |
| OC(Cn1cnnn1)(c1ccc(F)cc1F)C(F)(F)c1ccc(Cc2ccc(Cl)cc2)cn1 (stereo not drawn) [Compound 77, 1-(5-(4-Chlorobenzyl)pyridin-2-yl)-2-(2,4-difluorophenyl)-1,1-difluoro-3-(1H-tetrazol-1-yl)propan-2-ol] | 80 to 100 |
| OC(Cn1cnnn1)(c1ccc(F)cc1F)C(F)(F)c1ccc(COc2ccc(C(F)(F)F)cn2)cn1 (stereo not drawn) [Compound 99, 2-(2,4-difluorophenyl)-1,1-difluoro-3-(1H-tetrazol-1-yl)-1-(5-(((5-(trifluoromethyl)pyridin-2-yl)oxy)methyl)pyridin-2-yl)propan-2-ol] | 80 to 100 |
| OC(Cn1cnnn1)(c1ccc(Cl)cc1F)C(F)(F)c1ccc(CC2CC2)cn1 (stereo not drawn) [Compound 60, 7-(4-Chloro-fluorophenyl)-1-(5-(cyclopropylmethyl)pyridin-2-yl)-1,1-difluoro-3-(1H-tetrazol-1-yl)propan-2-ol] | 80 to 100 |
| N#Cc1cccc(OCc2ccc(C(F)(F)C(O)(Cn3cnnn3)c3ccc(F)cc3F)nc2)c1F (stereo not drawn) [Compound 89, 3-((6-(2-(2,4-difluorophenyl)-1,1-difluoro-2-hydroxy-3-(1H-tetrazol-1-yl)propyl)pyridin-3-yl)methoxy)-2-fluorobenzonitrile] | 80 to 100 |
| N#Cc1ccc(OCc2ccc(C(F)(F)C(O)(Cn3cnnn3)c3ccc(F)cc3F)nc2)nc1 (stereo not drawn) [Compound 98, 6-((6-(2-(2,4-difluorophenyl)-1,1-difluoro-2-hydroxy-3-(1H-tetrazol-1-yl)propyl)pyridin-3-yl)methoxy)nicotinonitrile] | 80 to 100 |
| N#Cc1ccc(OCc2ccc(C(F)(F)C(O)(Cn3cnnn3)c3ccc(F)cc3F)nc2)c(F)c1 (stereo not drawn) [Compound 88, 4-((6-(2-(2,4-difluorophenyl)-1,1-difluoro-2-hydroxy-3-(1H-tetrazol-1-yl)propyl)pyridin-3-yl)methoxy)-3-fluorobenzonitrile] | 80 to 100 |
| OC(Cn1cnnn1)(c1ccc(F)cc1F)C(F)(F)c1ccc(C2CC2)cn1 (stereo not drawn) [Compound 18, 1-(5-Cyclopropylpyridin-2-yl)-2-(2,4-difluorophenyl)-1,1-difluoro-3-(1H-tetrazol-1-yl)propan-2-ol] | 80 to 100 |
| OC(Cn1cnnn1)(c1ccc(F)cc1F)C(F)(F)c1ccc(COc2ncc(C(F)(F)F)cc2Cl)cn1 (stereo not drawn) [Compound 100, 1-(5-(((3-chloro-5-(trifluoromethyl)pyridin-2-yl)oxy)methyl)pyridin-2-yl)-2-(2,4-difluorophenyl)-1,1-difluoro-3-(1H-tetrazol-1-yl)propan-2-ol] | 80 to 100 |
| O=C(c1ccc(OCC(F)(F)F)cc1)c1ccc(C(F)(F)C(O)(Cn2cnnn2)c2ccc(F)cc2F)nc1 (stereo not drawn) [Compound 68, (6-(2-(2,4-Difluorophenyl)-1,1-difluoro-2-hydroxy-3-(1H-tetrazol-1-yl)propyl)pyridin-3-yl)(4-(2,2,2-trifluoroethoxy)phenyl)methanone] | 80 to 100 |
| OC(Cn1cnnn1)(c1ccc(F)cc1F)C(F)(F)c1ccc(/C=C/COCC(F)(F)F)cn1 (stereo not drawn) [Compound 6, (E)-2-(2,4-Difluorophenyl)-1,1-difluoro-3-(1H-tetrazol-1-yl)-1-(5-(3-(2,2,2-trifluoroethoxy)prop-1-en-1-yl)pyridin-2-yl)propan-2-ol] | < 40 |
| OC(Cn1cnnn1)(c1ccc(F)cc1F)C(F)(F)c1ccc(-c2ccc(C(F)(F)F)cn2)cn1 (stereo not drawn) [Compound 94, 2-(2,4-difluorophenyl)-1,1-difluoro-3-(1H-tetrazol-1-yl)-1-(5-(trifluoromethyl)-[2,3′-bipyridin]-6′-yl)propan-2-ol] | 80 to 100 |
| OC(Cn1cnnn1)(c1ccc(F)cc1F)C(F)(F)c1ccc(-c2ccncc2)cn1 (stereo not drawn) [Compound 96, 1-([3,4′-bipyridin]-6-yl)-2-(2,4-difluorophenyl)-1,1-difluoro-3-(1H-tetrazol-1-yl)propan-2-ol] | 60 to 79 |
| OC(Cn1cnnn1)(c1ccc(Cl)cc1F)C(F)(F)c1ccc(CC(F)(F)F)cn1 (stereo not drawn) [Compound 39, 2-(4-Chloro-2-fluorophenyl)-1,1-difluoro-3-(1H-tetrazol-1-yl)-1-(5-(2,2,2-trifluoroethyl)pyridin-2-yl)propan-2-ol] | 80 to 100 |

— patent US9556143B2, “Metalloenzyme inhibitor compounds” (Viamet Pharmaceuticals, Inc., priority 2011, dated 2017)
